Structures are written as SMILES. A value given as a limit tells only on which side of the number the result lay.

The target in one assay is T1, PIP4K2C (Homo sapiens, UniProt Q8TBX8).
T1 sequence (Q8TBX8 1-421): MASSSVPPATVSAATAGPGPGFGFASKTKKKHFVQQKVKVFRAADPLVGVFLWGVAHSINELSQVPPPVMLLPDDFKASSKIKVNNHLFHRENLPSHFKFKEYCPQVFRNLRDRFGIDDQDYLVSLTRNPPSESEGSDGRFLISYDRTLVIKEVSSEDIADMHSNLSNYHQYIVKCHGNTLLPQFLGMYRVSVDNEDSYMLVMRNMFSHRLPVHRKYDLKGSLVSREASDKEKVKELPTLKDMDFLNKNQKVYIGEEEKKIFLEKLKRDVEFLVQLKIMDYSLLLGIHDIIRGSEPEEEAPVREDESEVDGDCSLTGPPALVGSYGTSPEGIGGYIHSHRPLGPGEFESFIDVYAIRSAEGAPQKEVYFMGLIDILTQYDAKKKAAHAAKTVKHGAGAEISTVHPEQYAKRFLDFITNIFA
Nature of the assay: HiBiT PIP4K2C degradation assay in MOLT-4 cells (endogenous PIP4K2C C-terminally tagged with HiBiT). It is filed as cell-based. Details: untagged in primary human PBMCs and monocyte-derived dendritic cells. The conditions noted are these: 6 hours of incubation time, rather than 24 hours; MOLT-4, top concentration 10 micromolar; read-out: HiBIT-degradation MOLT4 PIP4k2C DC50 (6 hours, marked *). The essentials:
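Luminescent HiBiT lytic readout of residual PIP4K2C-HiBiT (CRISPR knock-in, MOLT-4, phenol red-free RPMI-1640 + 10% FBS). Cells exposed 6 or 24 h at 37 C to compound, top 10 micromolar, 3-fold, 10 points, duplicate. Hill fit (Levenberg-Marquardt) gives DC50.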
Background: The HiBiT peptide binds its large partner to form an active luciferase.
`O=C1CCC(Nc2ccc(C3CCN(CC4(O)CCN(C(=O)[C@H]5CC[C@H](Nc6ncc(F)c(-c7cccc(N8CCCCC8=O)c7)n6)CC5)CC4)CC3)c(F)c2)C(=O)N1` (stereo partly drawn) [Compound 579, 3-((3-fluoro-4-(1-((1-(trans-4-((5-fluoro-4-(3-(2-oxopiperidin-1-yl)phenyl)pyrimidin-2-yl)amino)cyclohexane-1-carbonyl)-4-hydroxypiperidin-4-yl)methyl)piperidin-4-yl)phenyl)amino)piperidine-2,6-dione]: the DC50 was less than 500 nM. Turning to `O=C1CCC(Nc2ccc(N3CCC(N4CCC(C(=O)N[C@H]5CC[C@H](Nc6ncc(F)c(-c7cccc(N8CCCCC8=O)c7)n6)CC5)CC4)C(F)(F)C3)c(F)c2)C(=O)N1` (stereo partly drawn) [Compound 499, trans-1′-(4-((2,6-dioxopiperidin-3-yl)amino)-2-fluorophenyl)-3′,3′-difluoro-N-(4-((5-fluoro-4-(3-(2-oxopiperidin-1-yl)phenyl)pyrimidin-2-yl)amino)cyclohexyl)-[1,4′-bipiperidine]-4-carboxamide], the DC50 was less than 500 nM.

On to `O=C1CCC(Nc2ccc(N3CCN(CC4(F)CCN(C(=O)[C@H]5CC[C@H](Nc6ncc(F)c(-c7cccc(N8CCOCC8=O)c7)n6)CC5)CC4)CC3)c(F)c2)C(=O)N1` (stereo partly drawn) [Compound 530, trans-3-((3-fluoro-4-(4-((4-fluoro-1-(4-((5-fluoro-4-(3-(3-oxomorpholino)phenyl)pyrimidin-2-yl)amino)cyclohexane-1-carbonyl)piperidin-4-yl)methyl)piperazin-1-yl)phenyl)amino)piperidine-2,6-dione], for which the DC50 is less than 500 nM. `O=C1CCC(Nc2ccc(N3CCN([C@H]4CC[C@H](C(=O)N[C@H]5CC[C@H](Nc6ncc(F)c(-c7cccc(C8CC8)c7)n6)CC5)CC4)CC3)c(F)c2)C(=O)N1` (stereo partly drawn) [Compound 559, trans-N-(trans-4-((4-(3-cyclopropylphenyl)-5-fluoropyrimidin-2-yl)amino)cyclohexyl)-4-(4-(4-((2,6-dioxopiperidin-3-yl)amino)-2-fluorophenyl)piperazin-1-yl)cyclohexane-1-carboxamide]: the DC50 is less than 500 nM. `O=C1CC[C@H](Nc2ccc(N3CCN([C@H]4CC[C@H](C(=O)N[C@H]5CC[C@H](Nc6ncc(F)c(-c7cccc(N8CCCOC8=O)c7)n6)CC5)CC4)CC3)c(F)c2)C(=O)N1` (single isomer, unassigned) [Compound 462]: the DC50 is less than 500 nM.

For the compound `O=C1CCC(Nc2ccc(N3CCN(CC4(O)CCN(C(=O)[C@H]5CC[C@H](Nc6ncc(F)c(-c7cccc(-n8ccccc8=O)c7)n6)CC5)CC4)CC3)c(F)c2)C(=O)N1` (stereo partly drawn) [Compound 392, trans-3-((3-fluoro-4-(4-((1-(4-((5-fluoro-4-(3-(2-oxopyridin-1(2H)-yl)phenyl)pyrimidin-2-yl)amino)cyclohexane-1-carbonyl)-4-hydroxypiperidin-4-yl)methyl)piperazin-1-yl)phenyl)amino)piperidine-2,6-dione], the DC50 is less than 500 nM. The same measure, in the same setting: next, `O=C1CCC(Nc2ccc(N3CCC(CC4CCN(C(=O)[C@H]5CC[C@H](Nc6ncc(F)c(-c7cccc(-c8ccc[nH]c8=O)c7)n6)CC5)CC4)CC3)c(F)c2)C(=O)N1` (stereo partly drawn) [Compound 407, trans-3-((3-fluoro-4-(4-((1-(4-((5-fluoro-4-(3-(2-oxo-1,2-dihydropyridin-3-yl)phenyl)pyrimidin-2-yl)amino)cyclohexane-1-carbonyl)piperidin-4-yl)methyl)piperidin-1-yl)phenyl)amino)piperidine-2,6-dione]: less than 500 nM. As to `O=C1CCC(Nc2ccc(N3CCC(CN4CCN(C(=O)[C@H]5CC[C@H](Nc6ncc(F)c(-c7cccc(N8CCCCC8=O)c7)n6)CC5)CC4)CC3)c(F)c2)C(=O)N1` (stereo partly drawn) [Compound 415, trans-3-((3-fluoro-4-(4-((4-(4-((5-fluoro-4-(3-(2-oxopiperidin-1-yl)phenyl)pyrimidin-2-yl)amino)cyclohexane-1-carbonyl)piperazin-1-yl)methyl)piperidin-1-yl)phenyl)amino)piperidine-2,6-dione], the DC50 is less than 500 nM. Regarding `Cn1nc([C@@H]2CCC(=O)NC2=O)c2ccc(C3CCN(CC4CCN(C(=O)O[C@H]5CC[C@H](Nc6ncc(F)c(-c7cccc(-n8ccccc8=O)c7)n6)CC5)CC4)CC3)cc21` (single isomer, unassigned) [Compound 638], the DC50 is less than 500 nM. Turning to `O=C1CCC(Nc2ccc(N3CCC(N4CCC(C(=O)N[C@H]5CC[C@H](Nc6ncc(F)c(-c7cccc(N8CCCOC8=O)c7)n6)CC5)CC4)C(F)(F)C3)c(F)c2)C(=O)N1` (stereo partly drawn) [Compound 500, trans-1′-(4-((2,6-dioxopiperidin-3-yl)amino)-2-fluorophenyl)-3′,3′-difluoro-N-(4-((5-fluoro-4-(3-(2-oxo-1,3-oxazinan-3-yl)phenyl)pyrimidin-2-yl)amino)cyclohexyl)-[1,4′-bipiperidine]-4-carboxamide], the DC50 is less than 500 nM.

Staying with this assay, now noted: 24 hours incubation, MOLT-4, top concentration 10 micromolar; read-out: HiBIT-degradation MOLT4 PIP4k2C 24 hours DC50.
Take `O=C1CCC(n2c(=O)oc3cc(N4CCC(CCN5CCC(C(=O)N6CCC(Nc7ncc(F)c(-c8cccc(-n9ccccc9=O)c8)n7)CC6)CC5)CC4)ccc32)C(=O)N1` (stereo not drawn) [Compound 330, 3-[6-[4-[2-[4-[4-[[5-fluoro-4-[3-(2-oxo-1-pyridyl)phenyl]pyrimidin-2-yl]amino]piperidine-1-carbonyl]-1-piperidyl]ethyl]-1-piperidyl]-2-oxo-1,3-benzoxazol-3-yl]piperidine-2,6-dione]: the DC50 is less than 500 nM. For the compound `O=C1CCC(Nc2ccc(N3CCC(N4CCC(C(=O)N[C@H]5CC[C@H](Nc6ncc(F)c(-c7cccc(-n8ccccc8=O)c7)n6)CC5)CC4)CC3)c(F)c2)C(=O)N1` (stereo partly drawn) [Compound 305, trans-1′-(4-((2,6-dioxopiperidin-3-yl)amino)-2-fluorophenyl)-N-(4-((5-fluoro-4-(3-(2-oxopyridin-1(2H)-yl)phenyl)pyrimidin-2-yl)amino)cyclohexyl)-[1,4′-bipiperidine]-4-carboxamide], the DC50 is less than 500 nM.

With `Cn1nc(C2CCC(=O)NC2=O)c2ccc(C3CCN(CCC4CCN(C(=O)[C@@H]5CCC[C@H](Nc6ncc(F)c(-c7cccc(-n8ccccc8=O)c7)n6)C5)CC4)CC3)cc21` (stereo partly drawn) [Compound 351, 3-(6-(1-(2-(1-((1R,3S)-3-((5-fluoro-4-(3-(2-oxopyridin-1(2H)-yl)phenyl)pyrimidin-2-yl)amino)cyclohexane-1-carbonyl)piperidin-4-yl)ethyl)piperidin-4-yl)-1-methyl-1H-indazol-3-yl)piperidine-2,6-dione], the DC50 is less than 500 nM. Consider `O=C1CCC(Nc2ccc(C3CCN(CCC4CCN(C(=O)[C@H]5CCC[C@@H](Nc6ncc(Cl)c(-c7cccc(-c8ccccc8)c7)n6)C5)CC4)CC3)cc2)C(=O)N1` (relative stereo) [Compound 64, cis-3-((4-(1-(2-(1-(3-((4-([1,1′-biphenyl]-3-yl)-5-chloropyrimidin-2-yl)amino)cyclohexane-1-carbonyl)piperidin-4-yl)ethyl)piperidin-4-yl)phenyl)amino)piperidine-2,6-dione], for which the DC50 is less than 500 nM. Consider `O=C1CCC(N2Cc3cc(C4CCN(C(=O)C5CCN(C(=O)[C@H]6CCC[C@@H](Nc7ncc(Cl)c(-c8cccc(-c9ccccc9)c8)n7)C6)CC5)CC4)ccc3C2=O)C(=O)N1` (relative stereo) [Compound 60, cis-3-(5-(1-(1-(3-((4-([1,1′-biphenyl]-3-yl)-5-chloropyrimidin-2-yl)amino)cyclohexane-1-carbonyl)piperidine-4-carbonyl)piperidin-4-yl)-1-oxoisoindolin-2-yl)piperidine-2,6-dione], for which the DC50 is less than 500 nM.

The term DC50 denotes the midpoint of the concentration-degradation curve.
